According to patent US10537563B2, “Methods for treating ocular disease using inhibitors of CSF-1R” (NOVARTIS AG, priority 2016, dated 2020):

What was measured:
PAK4 = PAK4 (Homo sapiens, UniProt O96013); test: In vitro kinase assay (Table 1); format: biochemical
BaF-Tel-KDR = target: T1, BaF-Tel-KDR (Homo sapiens, UniProt P35968); test: BaF3 proliferation assay; format: cell-based, murine
T1 construct: fused on or other part: P41212 (Transcription factor ETV6)

Alk = Alk (Homo sapiens, UniProt Q9UM73); test: In vitro kinase assay (Table 1); format: biochemical
BAF/Tel-RON-4.1/sACP = target: T2, BAF/Tel-RON-4.1/sACP (Homo sapiens, UniProt Q04912); test: BaF3 proliferation assay; format: cell-based, murine
T2 construct: fused on or other part: P41212 (Transcription factor ETV6)

BaF-Tpr-MET = target: T3, BaF-Tpr-MET (Homo sapiens, UniProt P08581); test: BaF3 proliferation assay; format: cell-based, murine
T3 construct: expressed in transfected cells; host or cells: BaF3 (murine pro-B cell line); the other entry of the earlier key: TPR (P12270, Nucleoprotein TPR)

BaF-Tel-IGF1R = target: T4, BaF-Tel-IGF1R (Homo sapiens, UniProt P08069); test: BaF3 proliferation assay; format: cell-based, murine
T4 construct: fused on or other part: P41212 (Transcription factor ETV6)

FGFR2 = FGFR2 (Homo sapiens, UniProt P21802); test: In vitro kinase assay (Table 1); format: biochemical
Khs1 (h) = target: T5, Khs1 (h) (Homo sapiens, UniProt Q9Y4K4); test: Kinase profiling at Invitrogen; format: biochemical
T5 construct: purchased Invitrogen

BAF/Tel-Syk-1.1/sACP = target: T6, BAF/Tel-Syk-1.1/sACP (Homo sapiens, UniProt P43405); test: BaF3 proliferation assay; format: cell-based, murine
T6 construct: fused on or other part: P41212 (Transcription factor ETV6)

Chk1 = Chk1 (Homo sapiens, UniProt O14757); test: In vitro kinase assay (Table 1); format: biochemical
IGF-1R = IGF-1R (Homo sapiens, UniProt P08069); test: In vitro kinase assay (Table 1); format: biochemical
TAK1 = TAK1 (Homo sapiens, UniProt O43318); test: In vitro kinase assay (Table 1); format: biochemical
PDGFRKalphaT674I (h) = target: T7, PDGFRKalphaT674I (h) (Homo sapiens, UniProt P16234, T674I); test: Kinase profiling at Invitrogen; format: biochemical
T7 construct: purchased Invitrogen

Src = Src (Homo sapiens, UniProt P12931); test: In vitro kinase assay (Table 1); format: biochemical
IL-8 = IL-8 production by human monocytes (ELISA); format: cell-based; settings: Monocyte
Protocol: (§1) Freshly isolated human PBMCs were used to purify human monocytes by negative selection using an indirect magnetic labeling system. […] Soluble factors such as cytokines (VEGFa, IL-6 etc.) and chemokines (IL-8, MCP-1, MMP9 etc.) in the culture supernatant were measured using commercial ELISA kits. The in vitro survival of human macrophages was measured using a commercially available CellTiter-Glo® system. Most observed results were repeated in multiple donors (n>5).

Blk = Blk (Homo sapiens, UniProt P51451); test: In vitro kinase assay (Table 1); format: biochemical
TRKC = TRKC (Homo sapiens, UniProt Q16288); test: In vitro kinase assay (Table 1); format: biochemical
Fyn = Fyn (Homo sapiens, UniProt P06241); test: In vitro kinase assay (Table 1); format: biochemical
BAF/Tel-KDR-Q4/sACP = target: T8, BAF/Tel-KDR-Q4/sACP (Homo sapiens, UniProt P35968); test: BaF3 proliferation assay; format: cell-based, murine
T8 construct: fused on or other part: P41212 (Transcription factor ETV6)

BaF-wt = test: BaF3 proliferation assay; format: cell-based, murine; settings: Mus musculus
MMP-9 = MMP-9 production by human macrophages (ELISA); format: cell-based; settings: low dose (0.1 μM)
Protocol: as §1

Insulin RK = Insulin RK (Homo sapiens, UniProt P06213); test: In vitro kinase assay (Table 1); format: biochemical
CD163 = CD163 expression in M2c macrophages; format: cell-based, human
Protocol: as §1

BAF/Tel-BMX-1.2/sACP = target: T9, BAF/Tel-BMX-1.2/sACP (Homo sapiens, UniProt P51813); test: BaF3 proliferation assay; format: cell-based, murine
T9 construct: fused on or other part: P41212 (Transcription factor ETV6)

Met (h) = target: T10, Met (h) (Homo sapiens, UniProt P08581); test: Kinase profiling at Invitrogen; format: biochemical
T10 construct: purchased Invitrogen

BAF/Tel-EphB2-Q2/sACP = target: T11, BAF/Tel-EphB2-Q2/sACP (Homo sapiens, UniProt P29323); test: BaF3 proliferation assay; format: cell-based, murine
T11 construct: fused on or other part: P41212 (Transcription factor ETV6)

CamKII alpha = CamKII alpha (Homo sapiens, UniProt Q9UQM7); test: In vitro kinase assay (Table 1); format: biochemical
BAF/Tel-AlK-Q1/sACP = target: T12, BAF/Tel-AlK-Q1/sACP (Homo sapiens, UniProt Q9UM73); test: BaF3 proliferation assay; format: cell-based, murine
T12 construct: fused on or other part: P41212 (Transcription factor ETV6)

human macrophages = test: In vitro survival of human macrophages (CellTiter-Glo); format: cell-based; settings: 1 and 10 μM
Protocol: as §1

ZAP70 = ZAP70 (Homo sapiens, UniProt P43403); test: In vitro kinase assay (Table 1); format: biochemical
BAF/Tel-MET-3.1/sACP = target: T13, BAF/Tel-MET-3.1/sACP (Homo sapiens, UniProt P08581); test: BaF3 proliferation assay; format: cell-based, murine
T13 construct: fused on or other part: P41212 (Transcription factor ETV6)

CD206 = CD206 expression in M2a macrophages; format: cell-based, human
Protocol: as §1

BAF/Tel-ZAP70-1.1/sACP = target: T14, BAF/Tel-ZAP70-1.1/sACP (Homo sapiens, UniProt P43403); test: BaF3 proliferation assay; format: cell-based, murine
T14 construct: fused on or other part: P41212 (Transcription factor ETV6)

PDGFRKalpha (h) = target: T15, PDGFRKalpha (h) (Homo sapiens, UniProt P16234); test: Kinase profiling at Invitrogen; format: biochemical
T15 construct: purchased Invitrogen
T15 sequence (P16234 24-1089): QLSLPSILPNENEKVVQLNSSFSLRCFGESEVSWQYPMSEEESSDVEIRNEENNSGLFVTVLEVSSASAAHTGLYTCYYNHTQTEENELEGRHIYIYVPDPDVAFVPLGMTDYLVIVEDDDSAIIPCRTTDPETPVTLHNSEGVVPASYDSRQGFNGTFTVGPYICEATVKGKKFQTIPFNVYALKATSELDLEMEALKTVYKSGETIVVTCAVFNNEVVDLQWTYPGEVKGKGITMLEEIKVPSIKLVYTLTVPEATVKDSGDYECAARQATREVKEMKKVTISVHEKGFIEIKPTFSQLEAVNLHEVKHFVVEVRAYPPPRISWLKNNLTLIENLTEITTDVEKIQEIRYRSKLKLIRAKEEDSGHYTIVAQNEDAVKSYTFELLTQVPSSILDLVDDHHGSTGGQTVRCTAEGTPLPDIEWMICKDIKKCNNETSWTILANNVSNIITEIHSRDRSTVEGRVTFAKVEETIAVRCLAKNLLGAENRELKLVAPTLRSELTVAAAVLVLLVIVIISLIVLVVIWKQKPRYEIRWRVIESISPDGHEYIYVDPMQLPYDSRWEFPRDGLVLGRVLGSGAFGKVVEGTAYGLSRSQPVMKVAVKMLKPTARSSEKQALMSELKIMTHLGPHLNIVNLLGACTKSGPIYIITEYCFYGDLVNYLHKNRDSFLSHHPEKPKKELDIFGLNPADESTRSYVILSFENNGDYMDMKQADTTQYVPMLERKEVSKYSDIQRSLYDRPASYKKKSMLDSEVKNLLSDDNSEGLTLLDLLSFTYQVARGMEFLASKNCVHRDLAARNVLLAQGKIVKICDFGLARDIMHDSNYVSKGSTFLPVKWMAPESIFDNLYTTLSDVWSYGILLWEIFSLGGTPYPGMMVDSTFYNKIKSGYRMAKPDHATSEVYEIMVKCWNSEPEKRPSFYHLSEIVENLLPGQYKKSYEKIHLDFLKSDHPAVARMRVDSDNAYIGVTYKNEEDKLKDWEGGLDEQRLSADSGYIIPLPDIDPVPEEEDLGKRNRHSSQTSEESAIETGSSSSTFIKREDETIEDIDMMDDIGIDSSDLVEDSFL

T10 sequence (P08581 25-1390): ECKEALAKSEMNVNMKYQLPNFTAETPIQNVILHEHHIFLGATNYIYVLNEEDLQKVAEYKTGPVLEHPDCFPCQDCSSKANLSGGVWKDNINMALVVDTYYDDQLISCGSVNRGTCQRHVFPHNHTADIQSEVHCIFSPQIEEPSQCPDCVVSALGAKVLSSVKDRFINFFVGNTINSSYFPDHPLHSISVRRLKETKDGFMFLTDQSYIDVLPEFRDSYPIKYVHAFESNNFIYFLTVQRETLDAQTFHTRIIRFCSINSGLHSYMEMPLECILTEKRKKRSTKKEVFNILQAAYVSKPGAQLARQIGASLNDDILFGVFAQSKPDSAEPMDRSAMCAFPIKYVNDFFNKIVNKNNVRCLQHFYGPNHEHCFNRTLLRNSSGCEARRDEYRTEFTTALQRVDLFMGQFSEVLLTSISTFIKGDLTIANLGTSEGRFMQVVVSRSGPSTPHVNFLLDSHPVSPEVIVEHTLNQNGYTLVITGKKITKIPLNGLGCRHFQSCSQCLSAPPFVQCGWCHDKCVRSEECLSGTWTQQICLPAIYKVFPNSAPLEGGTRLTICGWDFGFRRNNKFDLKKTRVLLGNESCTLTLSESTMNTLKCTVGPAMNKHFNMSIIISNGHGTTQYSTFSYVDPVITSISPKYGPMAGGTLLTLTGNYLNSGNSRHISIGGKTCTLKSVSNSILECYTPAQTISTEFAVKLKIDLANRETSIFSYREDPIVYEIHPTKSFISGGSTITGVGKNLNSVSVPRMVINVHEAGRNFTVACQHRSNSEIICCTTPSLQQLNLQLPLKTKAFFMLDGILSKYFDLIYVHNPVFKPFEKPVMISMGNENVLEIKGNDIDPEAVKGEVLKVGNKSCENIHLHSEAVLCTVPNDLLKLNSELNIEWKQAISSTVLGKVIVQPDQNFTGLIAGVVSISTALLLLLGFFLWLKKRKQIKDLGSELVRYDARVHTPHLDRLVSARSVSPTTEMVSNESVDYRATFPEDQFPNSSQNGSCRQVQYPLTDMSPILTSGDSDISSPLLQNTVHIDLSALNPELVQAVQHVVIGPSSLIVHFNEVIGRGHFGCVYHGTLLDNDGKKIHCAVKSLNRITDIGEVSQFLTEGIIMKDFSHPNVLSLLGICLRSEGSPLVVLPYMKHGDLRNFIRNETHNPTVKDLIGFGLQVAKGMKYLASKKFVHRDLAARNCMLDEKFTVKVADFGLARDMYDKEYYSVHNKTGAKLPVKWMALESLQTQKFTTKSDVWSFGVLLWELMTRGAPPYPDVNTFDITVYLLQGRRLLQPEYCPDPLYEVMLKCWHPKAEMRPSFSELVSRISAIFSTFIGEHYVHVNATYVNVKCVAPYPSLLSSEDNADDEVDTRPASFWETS
T7 sequence (P16234 550-1089 T674I limits assumed): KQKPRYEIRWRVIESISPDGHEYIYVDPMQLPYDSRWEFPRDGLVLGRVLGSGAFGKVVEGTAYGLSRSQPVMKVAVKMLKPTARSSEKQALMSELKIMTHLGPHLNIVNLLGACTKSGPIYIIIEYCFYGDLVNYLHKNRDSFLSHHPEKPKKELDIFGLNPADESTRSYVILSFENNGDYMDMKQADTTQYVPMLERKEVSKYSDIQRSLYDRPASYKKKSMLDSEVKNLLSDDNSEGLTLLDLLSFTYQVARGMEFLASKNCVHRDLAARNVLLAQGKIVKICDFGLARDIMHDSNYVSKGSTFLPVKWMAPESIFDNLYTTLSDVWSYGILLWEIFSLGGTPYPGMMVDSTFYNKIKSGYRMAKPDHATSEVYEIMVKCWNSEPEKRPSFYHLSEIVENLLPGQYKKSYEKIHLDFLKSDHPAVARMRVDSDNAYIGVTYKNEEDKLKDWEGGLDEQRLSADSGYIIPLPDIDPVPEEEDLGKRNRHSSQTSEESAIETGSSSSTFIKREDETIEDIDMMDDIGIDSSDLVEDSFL
T5 sequence (Q9Y4K4 whole entry): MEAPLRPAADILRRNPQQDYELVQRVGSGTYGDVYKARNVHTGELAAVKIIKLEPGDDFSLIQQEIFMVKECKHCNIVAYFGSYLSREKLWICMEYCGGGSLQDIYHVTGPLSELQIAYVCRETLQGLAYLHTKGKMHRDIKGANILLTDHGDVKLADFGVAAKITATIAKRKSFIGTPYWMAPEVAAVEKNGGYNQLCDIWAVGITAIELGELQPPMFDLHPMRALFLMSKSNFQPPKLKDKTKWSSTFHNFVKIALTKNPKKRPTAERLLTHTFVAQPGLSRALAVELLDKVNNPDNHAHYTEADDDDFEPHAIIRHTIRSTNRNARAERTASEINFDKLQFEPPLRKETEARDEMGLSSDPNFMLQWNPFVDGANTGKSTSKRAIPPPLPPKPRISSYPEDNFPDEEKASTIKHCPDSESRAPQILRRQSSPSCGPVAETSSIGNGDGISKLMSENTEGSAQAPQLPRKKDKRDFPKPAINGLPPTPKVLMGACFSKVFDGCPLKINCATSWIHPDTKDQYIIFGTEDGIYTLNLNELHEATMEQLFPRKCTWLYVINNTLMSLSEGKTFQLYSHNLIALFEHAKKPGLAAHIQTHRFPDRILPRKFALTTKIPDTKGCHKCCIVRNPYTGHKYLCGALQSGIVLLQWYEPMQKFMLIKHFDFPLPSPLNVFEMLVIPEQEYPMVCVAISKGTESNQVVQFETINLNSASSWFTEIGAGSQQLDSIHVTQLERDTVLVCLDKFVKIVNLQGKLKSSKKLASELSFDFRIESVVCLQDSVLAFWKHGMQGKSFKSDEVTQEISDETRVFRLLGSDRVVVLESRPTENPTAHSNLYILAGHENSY
CamKII alpha, sequence (Q9UQM7 whole entry): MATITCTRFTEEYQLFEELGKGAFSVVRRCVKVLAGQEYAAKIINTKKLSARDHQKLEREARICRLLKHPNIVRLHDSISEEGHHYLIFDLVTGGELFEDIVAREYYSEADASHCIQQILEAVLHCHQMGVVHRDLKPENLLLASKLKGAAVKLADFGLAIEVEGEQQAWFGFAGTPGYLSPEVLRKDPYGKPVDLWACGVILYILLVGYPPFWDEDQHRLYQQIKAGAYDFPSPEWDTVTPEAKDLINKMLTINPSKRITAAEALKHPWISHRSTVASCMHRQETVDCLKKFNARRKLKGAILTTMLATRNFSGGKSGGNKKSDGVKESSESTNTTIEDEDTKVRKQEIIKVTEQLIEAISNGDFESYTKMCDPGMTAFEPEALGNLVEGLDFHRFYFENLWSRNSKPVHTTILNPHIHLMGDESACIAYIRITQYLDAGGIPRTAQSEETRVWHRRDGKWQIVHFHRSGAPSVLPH
TRKC, sequence (Q16288 32-839, species assumed): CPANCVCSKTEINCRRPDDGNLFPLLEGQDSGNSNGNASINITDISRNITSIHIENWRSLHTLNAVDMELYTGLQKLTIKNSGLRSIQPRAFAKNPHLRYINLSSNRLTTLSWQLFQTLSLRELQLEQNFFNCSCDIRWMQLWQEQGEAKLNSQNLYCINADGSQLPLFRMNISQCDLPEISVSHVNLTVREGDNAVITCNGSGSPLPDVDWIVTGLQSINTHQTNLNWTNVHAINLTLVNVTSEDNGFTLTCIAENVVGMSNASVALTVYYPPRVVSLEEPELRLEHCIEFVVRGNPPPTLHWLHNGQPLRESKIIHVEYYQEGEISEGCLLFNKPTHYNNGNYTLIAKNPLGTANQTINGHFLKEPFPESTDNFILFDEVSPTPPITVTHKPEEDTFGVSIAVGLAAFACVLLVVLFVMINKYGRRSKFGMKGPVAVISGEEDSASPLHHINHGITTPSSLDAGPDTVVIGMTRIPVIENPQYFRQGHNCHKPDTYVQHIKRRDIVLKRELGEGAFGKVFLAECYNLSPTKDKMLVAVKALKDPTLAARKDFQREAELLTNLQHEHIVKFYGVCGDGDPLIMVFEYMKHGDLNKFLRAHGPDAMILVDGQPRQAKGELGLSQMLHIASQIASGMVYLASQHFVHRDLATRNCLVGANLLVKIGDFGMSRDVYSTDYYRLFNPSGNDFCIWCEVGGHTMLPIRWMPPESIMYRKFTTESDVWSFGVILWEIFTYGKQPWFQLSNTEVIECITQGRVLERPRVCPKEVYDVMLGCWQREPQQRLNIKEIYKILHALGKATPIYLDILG

CNC(=O)c1cc(Oc2ccc3nc(NC4CCCCC4O)sc3c2)ccn1 (stereo not drawn) [Compound (I)]
IC50 (PAK4): > 10 µM
EC50 (BaF-Tel-KDR): > 10 µM
IC50 (Alk): > 10 µM
EC50 (BAF/Tel-RON-4.1/sACP): > 10 µM
EC50 (BaF-Tpr-MET): > 10 µM
EC50 (BaF-Tel-IGF1R): > 10 µM
IC50 (FGFR2): > 10 µM
inhibition at 0.5 µM (Khs1 (h); read-out: % inhibition @ 0.5 μM, Khs1 (h)): 15%
inhibition at 5 µM (Khs1 (h); read-out: % inhibition @ 5 μM, Khs1 (h)): 27%
inhibition at 20 µM (Khs1 (h); read-out: % inhibition @ 20 μM, Khs1 (h)): 52%
EC50 (BAF/Tel-Syk-1.1/sACP): > 10 µM
IC50 (Chk1): > 10 µM
IC50 (IGF-1R): > 10 µM
IC50 (TAK1): > 10 µM
inhibition at 0.5 µM (PDGFRKalphaT674I (h); read-out: % inhibition @ 0.5 μM, PDGFRKalphaT674I (h)): -3%
inhibition at 5 µM (PDGFRKalphaT674I (h); read-out: % inhibition @ 5 μM, PDGFRKalphaT674I (h)): 2%
inhibition at 20 µM (PDGFRKalphaT674I (h); read-out: % inhibition @ 20 μM, PDGFRKalphaT674I (h)): 45%
IC50 (Src): > 10 µM
inhibition at 0.05 µM (IL-8): 7 to 90%
IC50 (Blk): > 10 µM
IC50 (TRKC): > 10 µM
IC50 (Fyn): > 10 µM
EC50 (BAF/Tel-KDR-Q4/sACP): > 10 µM
EC50 (BaF-wt): > 10 µM
MMP-9 production by human macrophages (MMP-9): downregulated
IC50 (Insulin RK): > 10 µM
CD163 expression in M2c macrophages (CD163): no Compound (I) dose effect
EC50 (BAF/Tel-BMX-1.2/sACP): > 10 µM
inhibition at 0.5 µM (Met (h); read-out: % inhibition @ 0.5 μM, Met (h)): 0%
inhibition at 5 µM (Met (h); read-out: % inhibition @ 5 μM, Met (h)): 4%
inhibition at 20 µM (Met (h); read-out: % inhibition @ 20 μM, Met (h)): 37%
EC50 (BAF/Tel-EphB2-Q2/sACP): > 10 µM
IC50 (CamKII alpha): > 10 µM
EC50 (BAF/Tel-AlK-Q1/sACP): > 10 µM
viability of human macrophages (CTG values and light microscope pictures) (human macrophages): decreased the viability
IC50 (ZAP70): > 10 µM
EC50 (BAF/Tel-MET-3.1/sACP): > 10 µM
CD206 expression in M2a (CD206): dose-dependently decreased
EC50 (BAF/Tel-ZAP70-1.1/sACP): > 10 µM
inhibition at 0.5 µM (PDGFRKalpha (h); read-out: % inhibition @ 0.5 μM, PDGFRKalpha (h)): 28%
inhibition at 5 µM (PDGFRKalpha (h); read-out: % inhibition @ 5 μM, PDGFRKalpha (h)): 41%
inhibition at 20 µM (PDGFRKalpha (h); read-out: % inhibition @ 20 μM, PDGFRKalpha (h)): 55%
